PubChem BioAssay (NCI)
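Five compound concentrations were applied to cells in 96-well plates for 48 hours; endpoints were derived by simple linear interpolation of the resulting dose-response curve. Definition used: TGI = concentration required for complete inhibition of growth.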

Experiments:
Assay in all cases: inhibition of tumour cell growth, NCI panel, 48 h
786-0 renal = system: 786-0 renal
A498 renal = system: A498 renal
A549 NSCLC = system: A549 NSCLC
ACHN renal = system: ACHN renal
BT-549 breast = system: BT-549 breast
CAKI-1 renal = system: CAKI-1 renal
CCRF-CEM leukemia = system: CCRF-CEM leukemia
COLO 205 colon = system: COLO 205 colon
DU-145 prostate = system: DU-145 prostate
EKVX NSCLC = system: EKVX NSCLC
HCT-116 colon = system: HCT-116 colon
HCT-15 colon = system: HCT-15 colon
HL-60(TB) leukemia = system: HL-60(TB) leukemia
HOP-62 NSCLC = system: HOP-62 NSCLC
HOP-92 NSCLC = system: HOP-92 NSCLC
HT29 colon = system: HT29 colon
IGROV1 ovarian = system: IGROV1 ovarian
K-562 leukemia = system: K-562 leukemia
KM12 colon = system: KM12 colon
LOX IMVI melanoma = system: LOX IMVI melanoma
M14 melanoma = system: M14 melanoma
MCF7 breast = system: MCF7 breast
MDA-MB-231 breast = system: MDA-MB-231 breast
MDA-MB-435 = system: MDA-MB-435
MDA-N = system: MDA-N
MOLT-4 leukemia = system: MOLT-4 leukemia
NCI-H226 lung = system: NCI-H226 lung
NCI-H23 lung = system: NCI-H23 lung
NCI-H460 lung = system: NCI-H460 lung
NCI/ADR-RES ovarian = system: NCI/ADR-RES ovarian
OVCAR-3 ovarian = system: OVCAR-3 ovarian
OVCAR-4 ovarian = system: OVCAR-4 ovarian
OVCAR-5 ovarian = system: OVCAR-5 ovarian
OVCAR-8 ovarian = system: OVCAR-8 ovarian
PC-3 prostate = system: PC-3 prostate
RPMI-8226 leukemia = system: RPMI-8226 leukemia
RXF 393 renal = system: RXF 393 renal
SF-295 CNS = system: SF-295 CNS
SF-539 CNS = system: SF-539 CNS
SK-MEL-2 melanoma = system: SK-MEL-2 melanoma
SK-MEL-28 melanoma = system: SK-MEL-28 melanoma
SK-MEL-5 melanoma = system: SK-MEL-5 melanoma
SK-OV-3 ovarian = system: SK-OV-3 ovarian
SN12C renal = system: SN12C renal
SNB-19 CNS = system: SNB-19 CNS
SNB-75 CNS = system: SNB-75 CNS
SR leukemia = system: SR leukemia
SW-620 colon = system: SW-620 colon
T-47D breast = system: T-47D breast
TK-10 renal = system: TK-10 renal
U251 CNS = system: U251 CNS
UACC-257 melanoma = system: UACC-257 melanoma
UACC-62 melanoma = system: UACC-62 melanoma
HCC-2998 colon = system: HCC-2998 colon
MALME-3M melanoma = system: MALME-3M melanoma
NCI-H522 lung = system: NCI-H522 lung
UO-31 renal = system: UO-31 renal
SF-268 CNS = system: SF-268 CNS

`O=S(=O)(O)c1cc(N=Nc2cccc3ccccc23)c(O)c2ncccc12` showed a TGI (786-0 renal) greater than 100 µM, a TGI (A498 renal) greater than 100 µM and a TGI (A549 NSCLC) greater than 100 µM. For the same molecule, the TGI (ACHN renal) was greater than 100 µM, the TGI (BT-549 breast) was greater than 100 µM and the TGI (CAKI-1 renal) was greater than 100 µM. It also gave a TGI (CCRF-CEM leukemia) greater than 100 µM, a TGI (COLO 205 colon) greater than 100 µM and a TGI (DU-145 prostate) greater than 100 µM. For the same molecule, the TGI (EKVX NSCLC) was greater than 100 µM, the TGI (HCT-116 colon) was greater than 100 µM and the TGI (HCT-15 colon) was greater than 100 µM. It also gave a TGI (HL-60(TB) leukemia) greater than 100 µM, a TGI (HOP-62 NSCLC) greater than 100 µM and a TGI (HOP-92 NSCLC) greater than 100 µM. For the same molecule, the TGI (HT29 colon) was 83.5 µM, the TGI (IGROV1 ovarian) was greater than 100 µM and the TGI (K-562 leukemia) was greater than 100 µM. It also gave a TGI (KM12 colon) greater than 100 µM, a TGI (LOX IMVI melanoma) greater than 100 µM and a TGI (M14 melanoma) greater than 100 µM. The TGI (MCF7 breast) was greater than 100 µM, the TGI (MDA-MB-231 breast) was greater than 100 µM and the TGI (MDA-MB-435) was greater than 100 µM. It also gave a TGI (MDA-N) greater than 100 µM, a TGI (MOLT-4 leukemia) greater than 100 µM and a TGI (NCI-H226 lung) of 85.8 µM. For the same molecule, the TGI (NCI-H23 lung) was greater than 100 µM, the TGI (NCI-H460 lung) was 69.4 µM and the TGI (NCI/ADR-RES ovarian) was greater than 100 µM. It also gave a TGI (OVCAR-3 ovarian) greater than 100 µM, a TGI (OVCAR-4 ovarian) greater than 100 µM and a TGI (OVCAR-5 ovarian) greater than 100 µM. For the same molecule, the TGI (OVCAR-8 ovarian) was greater than 100 µM, the TGI (PC-3 prostate) was greater than 100 µM and the TGI (RPMI-8226 leukemia) was greater than 100 µM. For the same molecule, the TGI (RXF 393 renal) was greater than 100 µM, the TGI (SF-295 CNS) was greater than 100 µM and the TGI (SF-539 CNS) was greater than 100 µM. For the same molecule, the TGI (SK-MEL-2 melanoma) was greater than 100 µM, the TGI (SK-MEL-28 melanoma) was greater than 100 µM and the TGI (SK-MEL-5 melanoma) was greater than 100 µM. The TGI (SK-OV-3 ovarian) was greater than 100 µM, the TGI (SN12C renal) was greater than 100 µM and the TGI (SNB-19 CNS) was greater than 100 µM. It also gave a TGI (SNB-75 CNS) greater than 100 µM, a TGI (SR leukemia) of 65.7 µM and a TGI (SW-620 colon) greater than 100 µM. It also gave a TGI (T-47D breast) greater than 100 µM, a TGI (TK-10 renal) greater than 100 µM and a TGI (U251 CNS) greater than 100 µM. For the same molecule, the TGI (UACC-257 melanoma) was greater than 100 µM and the TGI (UACC-62 melanoma) was greater than 100 µM.

With `COc1ccc2c(C)cc(C)nc2n1` the TGI (786-0 renal) was greater than 100 µM, the TGI (A498 renal) was greater than 100 µM and the TGI (A549 NSCLC) was greater than 100 µM. The TGI (ACHN renal) was greater than 100 µM, the TGI (BT-549 breast) was greater than 100 µM and the TGI (CAKI-1 renal) was greater than 100 µM. The TGI (CCRF-CEM leukemia) was greater than 100 µM, the TGI (COLO 205 colon) was greater than 100 µM and the TGI (DU-145 prostate) was greater than 100 µM. The TGI (EKVX NSCLC) was greater than 100 µM, the TGI (HCC-2998 colon) was greater than 100 µM and the TGI (HCT-116 colon) was greater than 100 µM. It also gave a TGI (HCT-15 colon) greater than 100 µM, a TGI (HL-60(TB) leukemia) greater than 100 µM and a TGI (HOP-62 NSCLC) greater than 100 µM. For the same molecule, the TGI (HOP-92 NSCLC) was greater than 100 µM, the TGI (HT29 colon) was greater than 100 µM and the TGI (IGROV1 ovarian) was greater than 100 µM. The TGI (K-562 leukemia) was greater than 100 µM, the TGI (KM12 colon) was greater than 100 µM and the TGI (LOX IMVI melanoma) was greater than 100 µM. For the same molecule, the TGI (M14 melanoma) was greater than 100 µM, the TGI (MALME-3M melanoma) was greater than 100 µM and the TGI (MCF7 breast) was greater than 100 µM. For the same molecule, the TGI (MDA-MB-231 breast) was greater than 100 µM, the TGI (MDA-MB-435) was greater than 100 µM and the TGI (MDA-N) was greater than 100 µM. It also gave a TGI (MOLT-4 leukemia) greater than 100 µM, a TGI (NCI-H23 lung) greater than 100 µM and a TGI (NCI-H460 lung) greater than 100 µM. For the same molecule, the TGI (NCI-H522 lung) was greater than 100 µM, the TGI (NCI/ADR-RES ovarian) was greater than 100 µM and the TGI (OVCAR-3 ovarian) was greater than 100 µM. For the same molecule, the TGI (OVCAR-4 ovarian) was greater than 100 µM, the TGI (OVCAR-5 ovarian) was greater than 100 µM and the TGI (OVCAR-8 ovarian) was greater than 100 µM. For the same molecule, the TGI (PC-3 prostate) was greater than 100 µM, the TGI (RPMI-8226 leukemia) was greater than 100 µM and the TGI (RXF 393 renal) was greater than 100 µM. For the same molecule, the TGI (SF-295 CNS) was greater than 100 µM, the TGI (SK-MEL-2 melanoma) was greater than 100 µM and the TGI (SK-MEL-28 melanoma) was greater than 100 µM. For the same molecule, the TGI (SK-MEL-5 melanoma) was greater than 100 µM, the TGI (SK-OV-3 ovarian) was greater than 100 µM and the TGI (SN12C renal) was greater than 100 µM. For the same molecule, the TGI (SNB-19 CNS) was greater than 100 µM, the TGI (SNB-75 CNS) was greater than 100 µM and the TGI (SR leukemia) was greater than 100 µM. The TGI (SW-620 colon) was greater than 100 µM, the TGI (T-47D breast) was greater than 100 µM and the TGI (TK-10 renal) was greater than 100 µM. For the same molecule, the TGI (U251 CNS) was greater than 100 µM, the TGI (UACC-257 melanoma) was greater than 100 µM and the TGI (UACC-62 melanoma) was greater than 100 µM. The TGI (UO-31 renal) was greater than 100 µM.

`C[C@]12CCC3c4ccc(O)cc4CC[C@H]3C1CC(=O)NC2=O` (some centres not stated) showed a TGI (786-0 renal) greater than 10 µM, a TGI (A498 renal) greater than 10 µM and a TGI (A549 NSCLC) greater than 10 µM. It also gave a TGI (ACHN renal) greater than 10 µM, a TGI (BT-549 breast) greater than 10 µM and a TGI (CAKI-1 renal) greater than 10 µM. The TGI (CCRF-CEM leukemia) was greater than 10 µM, the TGI (COLO 205 colon) was greater than 10 µM and the TGI (DU-145 prostate) was greater than 10 µM. It also gave a TGI (HCC-2998 colon) greater than 10 µM, a TGI (HCT-116 colon) greater than 10 µM and a TGI (HCT-15 colon) greater than 10 µM. For the same molecule, the TGI (HL-60(TB) leukemia) was greater than 10 µM, the TGI (HOP-62 NSCLC) was greater than 10 µM and the TGI (HOP-92 NSCLC) was greater than 10 µM. For the same molecule, the TGI (HT29 colon) was greater than 10 µM, the TGI (IGROV1 ovarian) was greater than 10 µM and the TGI (K-562 leukemia) was greater than 10 µM. It also gave a TGI (KM12 colon) greater than 10 µM, a TGI (LOX IMVI melanoma) greater than 10 µM and a TGI (M14 melanoma) greater than 10 µM. For the same molecule, the TGI (MALME-3M melanoma) was greater than 10 µM, the TGI (MCF7 breast) was greater than 10 µM and the TGI (MDA-MB-231 breast) was greater than 10 µM. The TGI (MDA-MB-435) was greater than 10 µM, the TGI (MDA-N) was greater than 10 µM and the TGI (MOLT-4 leukemia) was greater than 10 µM. It also gave a TGI (NCI-H226 lung) greater than 10 µM, a TGI (NCI-H23 lung) greater than 10 µM and a TGI (NCI-H460 lung) greater than 10 µM. For the same molecule, the TGI (NCI/ADR-RES ovarian) was greater than 10 µM, the TGI (OVCAR-3 ovarian) was greater than 10 µM and the TGI (OVCAR-4 ovarian) was greater than 10 µM. It also gave a TGI (OVCAR-5 ovarian) greater than 10 µM, a TGI (OVCAR-8 ovarian) greater than 10 µM and a TGI (PC-3 prostate) greater than 10 µM. The TGI (RPMI-8226 leukemia) was greater than 10 µM, the TGI (RXF 393 renal) was greater than 10 µM and the TGI (SF-268 CNS) was greater than 10 µM. The TGI (SF-295 CNS) was greater than 10 µM, the TGI (SF-539 CNS) was greater than 10 µM and the TGI (SK-MEL-2 melanoma) was greater than 10 µM. The TGI (SK-MEL-28 melanoma) was greater than 10 µM, the TGI (SK-MEL-5 melanoma) was greater than 10 µM and the TGI (SK-OV-3 ovarian) was greater than 10 µM. It also gave a TGI (SN12C renal) greater than 10 µM, a TGI (SNB-19 CNS) greater than 10 µM and a TGI (SR leukemia) greater than 10 µM. It also gave a TGI (SW-620 colon) greater than 10 µM, a TGI (T-47D breast) greater than 10 µM and a TGI (TK-10 renal) greater than 10 µM. The TGI (U251 CNS) was greater than 10 µM, the TGI (UACC-257 melanoma) was greater than 10 µM and the TGI (UO-31 renal) was greater than 10 µM.
